Results as given in patent US20260217706A1, “HETEROCYCLIC COMPOUNDS, PREPARATION METHOD THEREFOR AND USE THEREOF” (GUANGZHOU YUFAN NANTU BIOTECHNOLOGIES CO., LTD, priority 2023, published 2026).

Legend:
[1] = target: CBL-B protein (Homo sapiens, UniProt Q13191); experiment: CBL-B binding experiment (Streptavidin-Tb cryptate / Ligand L1 displacement); details: 8 nM CBL-B protein, 25° C., 60 minutes; Ki=Relative IC50/2
Summary of the method: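 Buffer was 20 mM HEPES pH 7.5, 150 mM NaCl, 0.01% Triton X-100, 0.5 mM TCEP and BSA. Ten-point compound dilutions were incubated with 8 nM CBL-B for 60 min at 25° C., then read by luminescence after another 60 min at room temperature. IC50 came from a four-parameter fit, with Ki = relative IC50/2.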

[2] = test system: anti-CD3 activated human PBMCs; experiment: Effect of compounds on the level of IL-2 secretion by anti-CD3 activated human PBMCs (IL-2 ELISA); format: cell-based; details: compound concentration at which fold change in IL-2 = 5; hPBMCs, CD3 antibody 2 μg/mL, 48 h, compound from 3 μM
Procedure: 2. Inoculate the resuspended cells into a 96-well cell culture plate at 200 ul/well of cell suspension, and incubate in a 37° C. cell incubator for 1 h;
3. Adjust the compound concentration with DMSO, starting at a final concentration of 3 μM, and perform a 3-fold dilution sequentially for 10 concentration gradients, with an additional DMSO control well set up; and
4. Adjust the CD3 antibody to an appropriate concentration to achieve a final concentration of 2 μg/mL, mix thoroughly, and incubate in a 37° C. cell incubator for 48h.
5. After 48 h, centrifuge at 1500 rpm for 5 min to collect the supernatant of the culture medium for the human IL-2 ELISA test.
The OD values obtained from the ELISA test are converted into the fold change (FC) in IL-2 concentration. […] The EC50 is calculated using GraphPad Prism. When the fold change=5, the corresponding compound concentration is CFC=5 (in nM).

Sequence of CBL-B protein (Q13191 whole entry): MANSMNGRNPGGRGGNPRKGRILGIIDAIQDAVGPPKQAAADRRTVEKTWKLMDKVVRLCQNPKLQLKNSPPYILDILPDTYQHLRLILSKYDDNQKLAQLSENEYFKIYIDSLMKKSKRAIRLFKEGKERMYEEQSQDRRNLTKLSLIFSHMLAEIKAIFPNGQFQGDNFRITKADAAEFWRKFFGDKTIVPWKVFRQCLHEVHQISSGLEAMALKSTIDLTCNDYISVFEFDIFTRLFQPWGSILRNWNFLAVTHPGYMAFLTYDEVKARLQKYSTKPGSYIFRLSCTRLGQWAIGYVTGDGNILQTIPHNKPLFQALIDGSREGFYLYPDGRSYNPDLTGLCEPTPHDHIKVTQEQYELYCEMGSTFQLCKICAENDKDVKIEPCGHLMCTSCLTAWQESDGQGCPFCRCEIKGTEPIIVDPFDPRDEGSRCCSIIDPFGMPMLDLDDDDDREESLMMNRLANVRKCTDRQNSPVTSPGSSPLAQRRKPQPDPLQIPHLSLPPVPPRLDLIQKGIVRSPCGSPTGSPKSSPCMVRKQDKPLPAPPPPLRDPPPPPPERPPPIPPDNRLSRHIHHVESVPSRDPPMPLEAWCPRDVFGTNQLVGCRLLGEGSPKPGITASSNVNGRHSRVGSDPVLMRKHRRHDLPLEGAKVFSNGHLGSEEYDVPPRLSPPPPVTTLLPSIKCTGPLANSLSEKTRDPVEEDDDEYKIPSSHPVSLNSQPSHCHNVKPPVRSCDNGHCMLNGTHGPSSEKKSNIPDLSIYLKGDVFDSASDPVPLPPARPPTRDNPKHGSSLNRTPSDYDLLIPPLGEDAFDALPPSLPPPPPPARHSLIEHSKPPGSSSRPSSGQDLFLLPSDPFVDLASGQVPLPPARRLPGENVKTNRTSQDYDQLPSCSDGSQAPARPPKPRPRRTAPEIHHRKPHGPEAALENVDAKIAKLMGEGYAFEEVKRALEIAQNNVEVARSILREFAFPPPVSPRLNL

Ki [1]	Structure (SMILES)	IL-2 CFC=5/nM [2]
< 50 nM	Cn1cnnc1C1(c2cccc(-n3cc(C(F)(F)F)c4cc(CN5CCCC(C(F)F)C5)[nH]c4c3=O)c2)CCC1 (racemic) [Compound T114, 6-[3-[1-(4-methyl-1,2,4-triazol-3-yl)cyclobutyl]phenyl]-2-[[rac-(3S)-3-(difluoromethyl)-1-piperidyl]methyl]-4-(trifluoromethyl)-1H-pyrrolo[2,3-c]pyridin-7-one]	<500 nM
< 50 nM	CCN(C)Cc1cc2c(C(F)(F)F)cn(-c3cccc(C4(c5nncn5C)CCC4)c3)c(=O)c2[nH]1 [Compound T002, 2-((ethyl(methyl)amino)methyl)-6-(3-(1-(4-methyl-4H-1,2,4-triazol-3-yl)cyclobutyl)phenyl)-4-(trifluoromethyl)-1,6-dihydro-7H-pyrrolo[2,3-c]pyridin-7-one]	<500 nM
< 50 nM	Cn1cnnc1C1(c2cccc(-n3cc(C(F)(F)F)c4cc(CN5CC6CC6C5)[nH]c4c3=O)c2)CCC1 (centres unmarked) [Compound T007, 2-((3-azabicyclo[3.1.0]hexan-3-yl)methyl)-6-(3-(1-(4-methyl-4H-1,2,4-triazol-3-yl)cyclobutyl)phenyl)-4-(trifluoromethyl)-1,6-dihydro-7H-pyrrolo[2,3-c]pyridin-7-one]	<500 nM
< 50 nM	Cn1cnnc1C1(c2cccc(-n3cc(C(F)(F)F)c4cc(CNCCC5CC5)[nH]c4c3=O)c2)CCC1 [Compound T008, 2-[(2-cyclopropylethylamino)methyl]-6-[3-[1-(4-methyl-1,2,4-triazol-3-yl)cyclobutyl]phenyl]-4-(trifluoromethyl)-1H-pyrrolo[2,3-c]pyridin-7-one]	<500 nM
< 50 nM	C[C@H]1CCCN(Cc2cc3c(C4CC4)cn(-c4cccc(C5(Cc6nncn6C)CCC5)c4)c(=O)c3[nH]2)C1 [Compound T010, 4-cyclopropyl-2-[[(3S)-3-methyl-1-piperidyl]methyl]-6-[3-[1-[(4-methyl-1,2,4-triazol-3-yl)methyl]cyclobutyl]phenyl]-1H-pyrrolo[2,3-c]pyridin-7-one]	<500 nM
< 50 nM	C[C@H]1CCCN(Cc2cc3c(C4CC4)cn(-c4cccc([C@@H](c5nncn5C)C5CCC5)c4)c(=O)c3[nH]2)C1 [Compound T013, 6-(3-((S)-cyclobutyl(4-methyl-4H-1,2,4-triazol-3-yl)methyl)phenyl)-4-cyclopropyl-2-(((S)-3-methylpiperidin-1-yl)methyl)-1,6-dihydro-7H-pyrrolo[2,3-c]pyridin-7-one]	<500 nM
< 50 nM	C[C@H]1CCCN(Cc2cc3c(C(F)(F)F)cn(-c4cccc(C(C)(C)c5nncn5C)c4)c(=O)c3[nH]2)C1 [Compound T017, 6-[3-[1-methyl-1-(4-methyl-1,2,4-triazol-3-yl)ethyl]phenyl]-2-[[(3S)-3-methyl-1-piperidyl]methyl]-4-(trifluoromethyl)-1H-pyrrolo[2,3-c]pyridin-7-one]	<500 nM
< 50 nM	CCN(CC)Cc1cc2c(C(F)(F)F)cn(-c3cccc([C@]4(c5nncn5C)C[C@@H](C)C4)c3)c(=O)c2[nH]1 [Compound T018, 2-((diethylamino)methyl)-6-(3-((1s,3s)-3-methyl-1-(4-methyl-4H-1,2,4-triazol-3-yl)cyclobutyl)phenyl)-4-(trifluoromethyl)-1,6-dihydro-7H-pyrrolo[2,3-c]pyridin-7-one]	<500 nM
< 50 nM	Cn1cnnc1C1(c2cccc(-n3cc(C(F)(F)F)c4cc(CN5CCC6(CC6)C5)[nH]c4c3=O)c2)CCC1 [Compound T023, 2-(5-azaspiro[2.4]heptan-5-ylmethyl)-6-[3-[1-(4-methyl-1,2,4-triazol-3-yl)cyclobutyl]phenyl]-4-(trifluoromethyl)-1H-pyrrolo[2,3-c]pyridin-7-one]	<500 nM

More lines, now with the values behind:

Structure (SMILES)	Ki [1]	IL-2 CFC=5/nM [2]
C[C@H]1CCCN(Cc2cc(C(F)(F)F)c3cn(-c4cccc([C@]5(c6nncn6C)C[C@@H](C)C5)c4)c(=O)n3c2)C1 (racemic) [Compound T140, 2-(3-((1s,3R)-3-methyl-1-(4-methyl-4H-1,2,4-triazol-3-yl)cyclobutyl)phenyl)-6-(((S)-3-methylpiperidin-1-yl)methy 1)-8-(trifluoromethyl)imidazo[1,5-a]pyridin-3(2H)-one]	< 50 nM	<500 nM
CCN(CC)Cc1cc2c(C(F)(F)F)cn(-c3cccc(C4(c5nncn5C)CCC4)c3)c(=O)c2[nH]1 [Compound T005, 2-(diethylaminomethyl)-6-[3-[1-(4-methyl-1,2,4-triazol-3-yl)cyclobutyl]phenyl]-4-(trifluoromethyl)-1H-pyrrolo[2,3-c]pyridin-7-one]	< 50 nM	<500 nM
Cn1cnnc1C1(c2cccc(-n3cc(C(F)(F)F)c4cc(CNC5(C)CCC5)[nH]c4c3=O)c2)CCC1 [Compound T009, 2-[[(1-methylcyclobutyl)amino]methyl]-6-[3-[1-(4-methyl-1,2,4-triazol-3-yl)cyclobutyl]phenyl]-4-(trifluoromethyl)-1H-pyrrolo[2,3-c]pyridin-7-one]	< 50 nM	<500 nM
C[C@H]1CCCN(Cc2cc3c(C4CC4)cn(-c4cccc([C@]5(c6nncn6C)C[C@@H](C)C5)c4)c(=O)c3[nH]2)C1 [Compound T011, 4-cyclopropyl-6-(3-((1s,3R)-3-methyl-1-(4-methyl-4H-1,2,4-triazol-3-yl)cyclobutyl)phenyl)-2-(((S)-3-methylpiperidin-1-yl)methyl)-1,6-dihydro-7H-pyrrolo[2,3-c]pyridin-7-one]		<500 nM
C[C@H]1CCCN(Cc2cc3c(C4CC4)cn(-c4cccc([C@]5(c6nncn6C)C[C@H](C)C5)c4)c(=O)c3[nH]2)C1 [Compound T014, 4-cyclopropyl-6-(3-((1r,3S)-3-methyl-1-(4-methyl-4H-1,2,4-triazol-3-yl)cyclobutyl)phenyl)-2-(((S)-3-methylpiperidin-1-yl)methyl)-1,6-dihydro-7H-pyrrolo[2,3-c]pyridin-7-one]		<500 nM
CCN(Cc1cc2c(C(F)(F)F)cn(-c3cccc(C4(c5nncn5C)CCC4)c3)c(=O)c2[nH]1)C(C)C [Compound T019, 2-[[ethyl(isopropyl)amino]methyl]-6-[3-[1-(4-methyl-1,2,4-triazol-3-yl)cyclobutyl]phenyl]-4-(trifluoromethyl)-1H-pyrrolo[2,3-c]pyridin-7-one]	< 50 nM	<500 nM
Cn1cnnc1C1(c2cccc(-n3cc(C(F)(F)F)c4cc(CN5CC[C@H](F)C5)[nH]c4c3=O)c2)CCC1 [Compound T020, 2-[[(3S)-3-fluoropyrrolidin-1-yl]methyl]-6-[3-[1-(4-methyl-1,2,4-triazol-3-yl)cyclobutyl]phenyl]-4-(trifluoromethyl)-1H-pyrrolo[2,3-c]pyridin-7-one]		<500 nM
Cn1cnnc1C1(c2cccc(-n3cc(C(F)(F)F)c4cc(CN5CC[C@@H](F)C5)[nH]c4c3=O)c2)CCC1 [Compound T021, 2-[[(3R)-3-fluoropyrrolidin-1-yl]methyl]-6-[3-[1-(4-methyl-1,2,4-triazol-3-yl)cyclobutyl]phenyl]-4-(trifluoromethyl)-1H-pyrrolo[2,3-c]pyridin-7-one]		<500 nM
C[C@H]1CCCN(Cc2cc3c(C(F)(F)F)cn(-c4cccc([C@]5(c6nncn6C)C[C@H](C#N)C5)c4)c(=O)c3[nH]2)C1 [Compound T136, (1S,3r)-3-(4-methyl-4H-1,2,4-triazol-3-yl)-3-(3-(2-(((S)-3-methylpiperidin-1-yl)methyl)-7-oxo-4-(trifluoromethyl)-1,7-dihydro-6H-pyrrolo[2,3-c]pyridin-6-yl)phenyl)cyclobutane-1-carbonitrile]		<500 nM
C[C@H]1CCCN(Cc2cc3c(C(F)(F)F)cn(-c4cccc([C@]5(c6nncn6C)C[C@@H](C#N)C5)c4)c(=O)c3[nH]2)C1 [Compound T137, (1R,3s)-3-(4-methyl-4H-1,2,4-triazol-3-yl)-3-(3-(2-(((S)-3-methylpiperidin-1-yl)methyl)-7-oxo-4-(trifluoromethyl)-1,7-dihydro-6H-pyrrolo[2,3-c]pyridin-6-yl)phenyl)cyclobutane-1-carbonitrile]		<500 nM
C[C@H]1CCCN(Cc2cc3c(C(F)(F)F)cn(-c4cccc([C@]5(c6nncn6C)C[C@@H](CC#N)C5)c4)c(=O)c3[nH]2)C1 [Compound T139, 2-((1R,3s)-3-(4-methyl-4H-1,2,4-triazol-3-yl)-3-(3-(2-(((S)-3-methylpiperidin-1-yl)methyl)-7-oxo-4-(trifluoromethyl)-1,7-dihydro-6H-pyrrolo[2,3-c]pyridin-6-yl)phenyl)cyclobutyl)acetonitrile]		<500 nM
CO[C@H]1C[C@@](c2cccc(-n3cc(C(F)(F)F)c4cc(CN5CCC[C@H]6C[C@H]65)[nH]c4c3=O)c2)(c2nncn2C)C1 [Compound T183]		<500 nM
CO[C@H]1C[C@](c2cccc(-n3cc(C(F)(F)F)c4cc(CN5CCC[C@H]6C[C@H]65)[nH]c4c3=O)c2)(c2nncn2C)C1 [Compound T185]		<500 nM
